Data reported in US8530646B2, “Oxazolidinone derivative having 7-membered hetero ring” (Research Foundation Itsuu Laboratory, priority 2007, dated 2013).

What was measured:
Test in all cases: MIC determination by CLSI standard method (broth dilution, Mueller Hinton Broth)
Assay type in all cases: cell-based
Details in all cases: cation-adjusted Mueller Hinton Broth, inoculum about 5×10^5 CFU/mL, read-out: Minimal inhibitory concentration (MIC)
[1] = tested on: PRSP (penicillin resistant Streptococcus pneumoniae)
Method: (§1) The compounds of the invention were tested for antimicrobial activity.
(§2) Minimal inhibitory concentration (MIC: μg/ml) against different strains of bacteria was determined according to the standard method recommended by CLSI (clinical and laboratory standards institute). Samples were prepared by dissolving a test compound solution into DMSO (1280 μg/mL), followed by two fold dilution with DMSO. The sample was added to a bacteria suspension at the concentration of 5%, and MIC was determined. Mueller Hinton Broth was adjusted for cation concentration and used as a culture media. The inoculation concentration was about 5×10^5 CFU/mL.

[2] = tested on: VRE (vancomycin resistance enterococcus)
Method: as §1, §2

[3] = tested on: VISA (vancomycin-intermediate Staphylococcus aureus)
Method: as §1, §2

[4] = tested on: MRSA (methicillin-resistant Staphylococcus aureus)
Method: as §1, §2

Measured: MIC

COC(=S)NC[C@H]1CN(c2ccc(N3CCNN(C(=O)Cn4cc(Cl)cn4)CC3)c(F)c2)C(=O)O1 [Example A91]
≤ 1 µg/mL: [1] | [2] | [3] | [4]

CC(=S)NC[C@H]1CN(c2cc(F)c(N3CCON(C(=O)c4ccccc4O)CC3)c(F)c2)C(=O)O1 [Example B38]
≤ 1 µg/mL: [1] | [2] | [3] | [4]
